Data published in patent publication US8765420B2, “Method for preparing pterocarpan” (priority 2010, dated 2014).

Biological target: T1, biphenyl dioxygenase of P. pseudoalcaligenes KF707 (SEQ ID NO:3) (Metapseudomonas furukawaii, UniProt Q52028)
T1 construct: expressed in transfected cells; host or cells: Escherichia coli JM109 (pJHF108)
Assay: Biotransformation kinetics by whole cells of E. coli expressing biphenyl dioxygenase
Type: biochemical, Pseudomonas pseudoalcaligenes strain KF707
Conditions: for Corresponding epoxides produced after 5 h reaction: initial concentration of substrate 250 μM, whole cells of E. coli expressing BDO, 37° C., means of triplicate ± standard errors
Description: E. coli JM109 (pJHF108) was seed cultivated in 50 mL of LB medium containing ampicillin […] at 37° C. for 12 hours. The cultivated seed was inoculated to a 5-L fermentor (BioFlo 3000, Korea fermentor Co., Korea) containing 4.5 L of LB medium and […] of ampicillin, and mixed at 37° C. at 200 rpm for 8 hours. The culture broth was centrifuged at 8,000 g for 10 minutes using VS-21SMT centrifuge (Vision Scientific Co., Bucheon, Korea). Cells were washed three times with 100 mM minimal salt buffer and resuspended in the same buffer, adjusting to the optical density at 600 nm using a UV/visible spectrophotometer (Shimadzu, UV-1601PC, Kyoto, Japan).
Analytical HPLC was carried out using a Varian Prostar HPLC apparatus (Walnut Creek, Calif.) equipped with a photodiode array […] detector. For the analysis of isoflavan-4-ol stereoisomers and their metabolites, a Waters Spherisorb ODS-2 column ([…], 4.6 mm×25 cm, Milford, Mass.) was used. The mobile phase was operated as a linear gradient that made up of water-acetonitrile containing 0.1% formic acid (10% acetonitrile at 0 min, 40% acetonitrile at 15 min, 90% acetonitrile at 25 min, and 90% acetonitrile at 40 min). The flow rate was 1 mL/min and UV detection was performed at 270 nm. For the analysis of enantiomers of cis- and trans-isoflavan-4-ol, a Sumi Chiral OA-7000 column (5 mm, 4.6 mm×25 cm, Sumika Chemical Analysis Service, Ltd., Osaka, Japan) and mobile phase composed of 60:40 (v/v) of 20 mM phosphate buffer (pH 3.0) and acetonitrile were used. The flow rate was 1 mL/min and UV detection was performed at 270 nm.
Biotransformation kinetics by whole cells of E. coli expressing biphenyl dioxygenase was performed as follows. The bacterial culture was prepared as described above, resuspended in 50 mL of phosphate buffer containing 1 mM glucose in a 250 mL flask, and adjusted to a final culture concentration of OD 600 nm=0.6. Then, the bacterial culture was incubated with 250 μM each of four purified isoflavan-4-ol stereoisomers ((3S,4S)- and (3R,4R)-cis-isoflavan-4-ols and (3S,4R)- and (3R,4S)-trans-isoflavan-4-ols) on a rotary shaker (200 rpm) at 37° C. The bacterial cultures (2 mL) were extracted with ethyl acetate, and the solvent was evaporated to dryness as described above. Quantification of metabolites and parent compound by using HPLC with time was monitored in triplicate experiments. Due to the instability of metabolites which were produced from parent compound, the quantity was calculated from the peak area as compared to the standard curve of the parent compound.

T1 sequence (Q52028 whole entry M237T/S238T/M247I/H255Q/V258I/G268A/F277Y/M283S/M285L/D303E/T340I): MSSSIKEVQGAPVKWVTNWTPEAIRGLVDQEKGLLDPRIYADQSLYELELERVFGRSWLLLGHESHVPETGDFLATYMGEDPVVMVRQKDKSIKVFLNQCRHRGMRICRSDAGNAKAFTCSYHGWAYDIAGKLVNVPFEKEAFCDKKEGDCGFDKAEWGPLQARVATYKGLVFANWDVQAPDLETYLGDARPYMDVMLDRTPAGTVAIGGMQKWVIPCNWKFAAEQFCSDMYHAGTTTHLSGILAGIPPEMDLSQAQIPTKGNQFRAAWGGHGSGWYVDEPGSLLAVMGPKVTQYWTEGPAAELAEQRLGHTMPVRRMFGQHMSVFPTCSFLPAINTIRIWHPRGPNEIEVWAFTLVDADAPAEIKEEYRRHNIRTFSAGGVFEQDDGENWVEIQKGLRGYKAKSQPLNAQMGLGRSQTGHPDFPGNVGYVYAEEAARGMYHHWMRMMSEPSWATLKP

Structure (SMILES)	Corresponding epoxides produced after 5 h reaction	Corresponding epoxides produced after 5 h reaction (listed as Trans-isoflavan-4-ol (3S,4R))	epoxide production relative to that from (3R,4R)-cis-isoflavan-4-ol (after 5 h of reaction)	Corresponding epoxides produced after 5 h reaction (listed as Trans-isoflavan-4-ol (3R,4S))
O[C@H]1c2ccccc2OC[C@@H]1c1ccccc1 (stereo in doubt) [(3S,4R)-trans-isoflavan-4-ol]	141.1 µM	141.1 ± 6.2 µM		
O[C@H]1c2ccccc2OC[C@H]1c1ccccc1 (stereo in doubt) [(3R,4R)-cis-isoflavan-4-ol]	40 ± 4.0 µM			
O[C@@H]1c2ccccc2OC[C@@H]1c1ccccc1 (stereo in doubt) [(3S,4S)-cis-isoflavan-4-ol]	194.8 ± 5.5 µM		about 4.8 fold	
O[C@@H]1c2ccccc2OC[C@H]1c1ccccc1 (stereo in doubt) [(3R,4S)-trans-isoflavan-4-ol]	163.3 µM			163.3 ± 6.8 µM
